Measured values taken from patent US20130116241A1, “NOVEL INHIBITOR COMPOUNDS OF PHOSPHODIESTERASE TYPE 10A” (AbbVie Inc., priority 2011, published 2013).
Counter-ions that a name gives are not always drawn.

Target: human PDE10A (UniProt Q9Y233)
Experiment: Measurement of PDE activity (recombinant enzyme, HTRF cAMP kit)
Type: biochemical
Conditions: Table 1, substrate 20 nM for PDE10, 60 minutes at 29 C
In short: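 HTRF detection of cAMP left after hydrolysis, expressed as percent of uninhibited control to derive IC50. Reaction: serially diluted inhibitor mixed with recombinant enzyme, started with 20 nM cAMP, 60 min at 29 °C in Tris-HCl pH 7.5 buffer containing MgCl2 and BSA.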

human PDE10A, sequence (Q9Y233 290-1055 limits assumed): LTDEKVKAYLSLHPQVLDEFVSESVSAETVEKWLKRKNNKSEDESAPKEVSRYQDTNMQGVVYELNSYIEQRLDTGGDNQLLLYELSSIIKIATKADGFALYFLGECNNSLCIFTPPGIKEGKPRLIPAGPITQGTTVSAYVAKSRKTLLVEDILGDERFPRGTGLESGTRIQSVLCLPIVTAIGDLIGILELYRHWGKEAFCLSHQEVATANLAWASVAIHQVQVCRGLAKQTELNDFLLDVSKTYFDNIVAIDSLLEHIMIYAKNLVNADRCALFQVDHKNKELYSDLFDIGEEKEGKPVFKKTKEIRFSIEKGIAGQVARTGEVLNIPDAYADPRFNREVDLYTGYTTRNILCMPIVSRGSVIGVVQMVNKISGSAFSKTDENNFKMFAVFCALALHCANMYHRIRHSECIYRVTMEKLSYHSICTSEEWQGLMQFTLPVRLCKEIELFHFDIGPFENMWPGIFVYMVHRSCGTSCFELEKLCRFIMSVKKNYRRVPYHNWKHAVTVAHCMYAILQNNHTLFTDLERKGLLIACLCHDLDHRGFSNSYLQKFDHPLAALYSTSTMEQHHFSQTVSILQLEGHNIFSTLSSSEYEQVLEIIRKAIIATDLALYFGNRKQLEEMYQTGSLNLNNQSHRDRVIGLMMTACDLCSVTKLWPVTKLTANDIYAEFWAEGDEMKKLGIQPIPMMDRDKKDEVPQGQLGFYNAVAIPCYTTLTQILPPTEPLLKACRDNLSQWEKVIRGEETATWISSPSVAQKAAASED

Row | Structure (SMILES) | IC50
1 | O=c1c2c(N3C4CCC3COC4)cccc2cnn1CCc1cn2ccccc2n1 [compound 338, 2-[2-(imidazo[1,2-a]pyridin-2-yl)ethyl]-8-(3-oxa-8-azabicyclo[3.2.1]oct-8-yl)phthalazin-1(2H)-one] | < 100 nM

Same assay, conditions: Table 1, substrate 20 nM for PDE10, 60 minutes at 29 C, read-out: IC50

Row | Structure (SMILES) | IC50
2 | O=c1c2c(-c3ccoc3)cccc2ccn1C1CC1c1ccc2ccccc2n1 (stereo not drawn) [Example 268, anti 8-(furan-3-yl)-2-(2-(quinolin-2-yl)cyclopropyl)isoquinolin-1(2H)-one] | < 100 nM
3 | O=c1c2c(-c3ccncc3)cccc2cnn1C1CC1c1ccc2ccccc2n1 (racemic) [Example 226, anti (rac) 8-Pyridin-4-yl-2-(2-quinolin-2-yl-cyclopropyl)-2H-phthalazin-1-one 2,2,2,-trifluoroacetate] | < 100 nM
4 | O=c1c2c(-c3ccncc3)csc2ccn1CCc1ccc2ccccc2n1 [Example 205, 3-(Pyridin-4-yl)-5-[2-(quinolin-2-yl)ethyl]thieno[3,2-c]pyridin-4(5H)-one hydrochloride] | < 100 nM
5 | COc1ncccc1-c1csc2cnn(CCc3ccc4ccccc4n3)c(=O)c12 [Example 38, 3-(2-methoxypyridin-3-yl)-5-[2-(quinolin-2-yl)ethyl]thieno[2,3-d]pyridazin-4(5H)-one] | 200 to 500 nM
6 | O=c1c2c(-c3cncnc3)csc2ccn1CCc1ccc2ccccc2n1 [Example 206] | < 100 nM
7 | COc1ccc(-c2csc3cnn(CCc4ccc5ccccc5n4)c(=O)c23)cc1OC [Example 71, 3-(3,4-dimethoxyphenyl)-5-[2-(quinolin-2-yl)ethyl]thieno[2,3-d]pyridazin-4(5H)-one] | 200 to 500 nM
8 | O=c1c2c(-c3ccncc3)csc2c(F)cn1C1CC1c1ccc2ccccc2n1 (centres unmarked) [compound 279] | < 100 nM
9 | O=c1c2c(-c3cccc(O)c3)cccc2cnn1CCc1ccc2ccccc2n1 [Example 116, 8-(3-Hydroxyphenyl)-2-[2-(quinolin-2-yl)ethyl]phthalazin-1(2H)-one] | < 100 nM
10 | O=c1c2c(C3=CCNCC3)csc2ccn1CCc1ccc2ccccc2n1 [Example 213, 5-(2-(Quinolin-2-yl)ethyl)-3-(1,2,3,6-tetrahydropyridin-4-yl)thieno[3,2-c]pyridin-4(5H)-one hydrochloride] | 200 to 500 nM
11 | Cc1ccc(-c2cccc3cnn(CCc4ccc5ccccc5n4)c(=O)c23)c(F)c1 [Example 163, 8-(2-Fluoro-4-methylphenyl)-2-[2-(quinolin-2-yl)ethyl]phthalazin-1(2H)-one] | 200 to 500 nM
12 | O=c1c2c(Oc3cccnc3)cccc2cnn1CCc1cn2ccccc2n1 [compound 382, 2-[2-(imidazo[1,2-a]pyridin-2-yl)ethyl]-8-(pyridin-3-yloxy)phthalazin-1(2H)-one] | < 100 nM
13 | O=c1c2c(-c3ccncc3)csc2cnn1CCc1ccc2ccccc2n1 [Example 3, 3-(Pyridin-4-yl)-5-[2-(quinolin-2-yl)ethyl]thieno[2,3-d]pyridazin-4(5H)-one] | < 100 nM
14 | COc1ccc(-c2cccc3cnn(CCc4ccc5ccccc5n4)c(=O)c23)cn1 [Example 133, 8-(6-Methoxypyridin-3-yl)-2-[2-(quinolin-2-yl)ethyl]phthalazin-1(2H)-one] | < 100 nM
15 | Cn1cc(-c2cccc3cnn(CCc4cn5ccccc5n4)c(=O)c23)cn1 [compound 359, hydrochloride] | < 100 nM
16 | O=c1c2c(-c3cncnc3)cccc2ccn1[C@@H]1C[C@H]1c1ccc2cc(F)ccc2n1 (relative stereo) [Example 273, anti 2-(2-(6-fluoroquinolin-2-yl)cyclopropyl)-8-(pyrimidin-5-yl)isoquinolin-1(2H)-one] | < 100 nM
17 | O=c1c2c(-c3ccc4c(c3)CCO4)cccc2cnn1CCc1ccc2ccccc2n1 [Example 130, 8-(2,3-Dihydro-1-benzofuran-5-yl)-2-[2-(quinolin-2-yl)ethyl]phthalazin-1(2H)-one] | 200 to 500 nM

Row | Structure (SMILES) | IC50
18 | N#Cc1cccc(-c2cccc3cnn(CCc4ccc5ccccc5n4)c(=O)c23)c1 [Example 114, 3-{4-Oxo-3-[2-(quinolin-2-yl)ethyl]-3,4-dihydrophthalazin-5-yl}benzonitrile] | 100 to 200 nM
19 | O=c1c2c(OCc3ccncc3)cccc2cnn1CCc1cn2ccccc2n1 [compound 380, 2-[2-(imidazo[1,2-a]pyridin-2-yl)ethyl]-8-(pyridin-4-ylmethoxy)phthalazin-1(2H)-one] | 100 to 200 nM
20 | O=c1c2cccc(-c3cncnc3)c2cnn1CCc1cn2ccccc2n1 [Example 197, 2-[2-(Imidazo[1,2-a]pyridin-2-yl)ethyl]-5-(pyrimidin-5-yl)phthalazin-1(2H)-on] | < 100 nM
21 | O=c1c2c(N3CC4CCC(C3)O4)cccc2cnn1CCc1cn2ccccc2n1 [compound 349, 2-[2-(imidazo[1,2-a]pyridin-2-yl)ethyl]-8-(8-oxa-3-azabicyclo[3.2.1]oct-3-yl)phthalazin-1(2H)-one] | < 100 nM
22 | O=c1c2c(-c3ccncc3)csc2cnn1CCc1ccc2ncccc2n1 [compound 312, 5-[2-(1,5-naphthyridin-2-yl)ethyl]-3-(pyridin-4-yl)thieno[2,3-d]pyridazin-4(5H)-one] | < 100 nM
23 | O=c1c2c(-c3ccncc3)csc2ccn1CCc1ccc2cccc(F)c2n1 [compound 307, 5-[2-(8-fluoroquinolin-2-yl)ethyl]-3-(pyridin-4-yl)thieno[3,2-c]pyridin-4(5H)-one] | 200 to 500 nM
24 | O=c1c2c(-c3ccncc3)csc2cnn1CC(F)(F)c1ccc2ccccc2n1 [Example 94, 5-[2,2-Difluoro-2-(quinolin-2-yl)ethyl]-3-(pyridin-4-yl)thieno[2,3-d]pyridazin-4(5H)-one] | < 100 nM
25 | O=c1c2cccc(-c3ccncc3)c2cnn1CCc1nc2ccccc2[nH]1 [compound 398, 2-[2-(1H-benzimidazol-2-yl)ethyl]-5-(pyridin-4-yl)phthalazin-1(2H)-one] | 100 to 200 nM
26 | O=c1c2c(N3CCOCC3)csc2ccn1CCc1ccc2ccccc2n1 [Example 211, 3-(Morpholin-4-yl)-5-[2-(quinolin-2-yl)ethyl]thieno[3,2-c]pyridin-4(5H)-one hydrochloride] | 200 to 500 nM
27 | O=c1c2c(-c3ccncc3)csc2ccn1/C=C/c1ccc2cc(Cl)ccc2n1 [compound 412, 5-[(E)-2-(6-chloroquinolin-2-yl)ethenyl]-3-(pyridin-4-yl)thieno[3,2-c]pyridin-4(5H)-one] | < 100 nM
28 | O=c1c2c(-c3ccnc(C(F)(F)F)c3)cccc2cnn1CCc1cn2ccccc2n1 [compound 348, 2-[2-(imidazo[1,2-a]pyridin-2-yl)ethyl]-8-[2-(trifluoromethyl)pyridin-4-yl]phthalazin-1(2H)-one] | 100 to 200 nM
29 | N#CCc1ccc(-c2cccc3cnn(CCc4ccc5ccccc5n4)c(=O)c23)cc1 [Example 106, (4-{4-Oxo-3-[2-(quinolin-2-yl)ethyl]-3,4-dihydrophthalazin-5-yl}phenyl)acetonitrile] | < 100 nM
30 | O=c1c2cccc(-c3cncnc3)c2ccn1C1CC1c1ccc2ccccc2n1 (centres unmarked) [compound 296] | 100 to 200 nM
31 | O=c1c2c(N3CC4COCC4C3)cccc2ccn1C1CC1c1ccc2ccccc2n1 (single isomer, unassigned) [Example 259, anti (−) 8-(dihydro-1H-furo[3,4-c]pyrrol-5(3H,6H,6aH)-yl)-2-(2-(quinolin-2-yl)cyclopropyl)isoquinolin-1(2H)-one] | < 100 nM
32 | O=c1c2c(-c3ccnnc3)cccc2cnn1CCc1cn2ccccc2n1 [compound 344, 2-[2-(imidazo[1,2-a]pyridin-2-yl)ethyl]-8-(pyridazin-4-yl)phthalazin-1(2H)-one] | 100 to 200 nM
